Experimental data as given in EP4678638A1, “NEW E3 UBIQUITIN LIGASE LIGAND, PROTEIN DEGRADATION AGENT AND USE THEREOF” (priority 2023, dated 2024).

Tests used:
[1] = target: T1, human Cereblon WT GST-tagged protein (Homo sapiens, UniProt Q96SW2); assay: CRBN binding, HTRF (CEREBLON BINDING kit); conditions: Table II-2, CRBN binding screening, HTRF; for inhibition at 0.5 µM: read-out: Inhibition rate (%) at 0.5µM; for inhibition at 2 µM: read-out: Inhibition rate (%) at 2 µM
T1 construct: purchased CISBIO 64BDCRBNPEH
T1 sequence (Q96SW2 whole entry): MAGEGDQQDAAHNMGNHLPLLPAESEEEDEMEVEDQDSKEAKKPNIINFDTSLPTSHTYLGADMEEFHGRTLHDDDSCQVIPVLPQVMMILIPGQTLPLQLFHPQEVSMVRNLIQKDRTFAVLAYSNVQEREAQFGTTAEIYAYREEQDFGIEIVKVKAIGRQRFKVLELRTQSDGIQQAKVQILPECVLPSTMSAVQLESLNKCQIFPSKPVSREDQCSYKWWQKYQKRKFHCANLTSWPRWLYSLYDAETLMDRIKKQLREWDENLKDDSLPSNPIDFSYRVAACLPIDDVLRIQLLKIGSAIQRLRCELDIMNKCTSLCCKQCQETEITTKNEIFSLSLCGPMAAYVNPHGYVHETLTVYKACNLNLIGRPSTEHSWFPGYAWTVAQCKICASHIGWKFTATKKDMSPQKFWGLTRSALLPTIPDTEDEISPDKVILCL
Outline: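 Competitive HTRF: GST-tagged human WT Cereblon mixed with compound, Thalidomide-Re tracer and GST Eu antibody, incubated 3 h at room temperature. Signals read at 620 and 665 nm.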

[2] = target: T2, FAK (Homo sapiens, UniProt Q05397); assay: Western blot degradation of FAK; format: cell-based; conditions: Table D7
T2 construct: evaluate the effects of the compounds of the present disclosure on the expression of target proteins in cells; endogenous in cells
T2 sequence (Q05397 whole entry, species assumed): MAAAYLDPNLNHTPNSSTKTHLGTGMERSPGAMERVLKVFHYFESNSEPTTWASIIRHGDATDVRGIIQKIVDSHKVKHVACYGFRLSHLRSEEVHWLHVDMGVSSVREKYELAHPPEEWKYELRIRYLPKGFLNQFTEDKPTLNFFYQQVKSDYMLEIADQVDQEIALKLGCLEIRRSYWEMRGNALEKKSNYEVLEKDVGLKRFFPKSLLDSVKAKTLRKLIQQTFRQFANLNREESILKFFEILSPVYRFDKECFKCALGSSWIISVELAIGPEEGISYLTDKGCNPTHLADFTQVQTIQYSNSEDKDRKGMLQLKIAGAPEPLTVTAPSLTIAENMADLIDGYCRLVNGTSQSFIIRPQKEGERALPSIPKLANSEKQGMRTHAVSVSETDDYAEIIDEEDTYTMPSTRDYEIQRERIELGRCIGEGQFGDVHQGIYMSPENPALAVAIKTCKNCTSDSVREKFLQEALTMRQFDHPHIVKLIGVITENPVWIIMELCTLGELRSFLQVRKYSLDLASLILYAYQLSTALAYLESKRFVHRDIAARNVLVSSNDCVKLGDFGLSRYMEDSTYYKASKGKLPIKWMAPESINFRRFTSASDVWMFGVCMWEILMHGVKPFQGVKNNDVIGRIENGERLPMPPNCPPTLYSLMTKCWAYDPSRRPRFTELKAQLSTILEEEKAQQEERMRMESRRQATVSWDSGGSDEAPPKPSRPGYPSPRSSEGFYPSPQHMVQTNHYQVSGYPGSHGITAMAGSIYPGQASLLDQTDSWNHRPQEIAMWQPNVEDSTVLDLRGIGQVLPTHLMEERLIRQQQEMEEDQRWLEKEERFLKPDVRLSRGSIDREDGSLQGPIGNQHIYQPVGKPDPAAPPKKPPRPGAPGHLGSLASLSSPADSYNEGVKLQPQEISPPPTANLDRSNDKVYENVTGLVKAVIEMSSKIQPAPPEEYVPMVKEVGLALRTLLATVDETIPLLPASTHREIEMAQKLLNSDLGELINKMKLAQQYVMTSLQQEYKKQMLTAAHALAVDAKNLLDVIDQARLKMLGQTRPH
Method: Conventional Western blot assay was performed to evaluate the effects of the compounds of the present disclosure on the expression of target proteins in cells.
(1) Cell Seeding and Protein Harvesting: The selected cells were processed according to the cell seeding procedure and protein harvesting procedure in Table III-2. Table III-2 Cell Seeding and Protein Harvesting Procedures
(2) To the collected supernatant, 5X SDS sample loading buffer was added, followed by denaturation at 95°C for 5 minutes. The denatured samples were then separated by SDS-PAGE electrophoresis on a polyacrylamide gel. Proteins were transferred to a nitrocellulose membrane (0.45 µm NC membrane), blocked with blocking buffer at room temperature for 1 hour, and subjected to antibody incubation and development procedures according to the antibody manufacturer's instructions (Cell Signaling Technology).
Half-Maximal Degradation Concentration value (the drug concentration required for degrading proteins by 50%, abbreviated as DC50) reads method: comparing the grayscale values of Western blot bands from drug-treated samples with those from blank DMSO-treated controls, and identifying the drug concentration range at which the grayscale value is half that of the DMSO-treated control bands.
DC50 values can be calculated using ImageJ software to measure grayscale values of Western blot bands from drug-treated samples. The concentration-response curve is fitted to estimate the drug concentration corresponding to half the grayscale value.
Target protein remaining (%) refers to the percentage of target protein remaining in hPBMC cells after treatment with protein degrader compounds.
Calculation method for target protein remaining (%): Use ImageJ software to measure grayscale values of Western blot bands from drug (protein degrader)-treated samples. The grayscale value of drug-treated bands is divided by that of internal control protein bands, and the resulting quotient is normalized to obtain the relative percentage of remaining target protein after protein degrader treatment.
Target protein degradation rate (%) = 100% - target protein remaining (%).

[3] = tested on: H1975; assay: CCK-8 proliferation, NCI-H1975 (H1975); format: cell-based, Human; conditions: Homo sapiens, NCI-H1975; CCK-8; 96 hours; read-out: Inhibitory activity (IC50) on tumor cell proliferation, H1975
Outline: (§1)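 Cells seeded, then after 24 h treated with 10 concentrations (top 10 µM, 5-fold serial dilution) for a line-specific time at 37°C, 5% CO2. Viability read by CCK-8; IC50 fitted from growth-inhibition curves.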

[4] = tested on: H2228; assay: CCK-8 proliferation, NCI-H2228 (H2228); format: cell-based; conditions: Homo sapiens, NCI-H2228; CCK-8; 96 hours; read-out: Inhibitory activity (IC50) on tumor cell proliferation, H2228
Outline: as §1

[5] = tested on: SW620; assay: CCK-8 proliferation, SW620; format: cell-based; conditions: Homo sapiens, SW-620; CCK-8; 96 hours; read-out: Inhibitory activity (IC50) on tumor cell proliferation, SW620
Method: (§2) The tumor cells used herein were cultured in a cell culture medium listed in table A1 at 37°C in an incubator with 5% CO2. Prior to experimentation, all cell lines used were correctly identified by STR profiling, and tested negative for mycoplasma contamination using a mycoplasma detection kit through routine screenings. Table A1. Tumor cells and cell culture medium used in the present disclosure
(§3) IC50 values of the compounds of the present disclosure (including the compounds in Table 1, and compounds of examples) were measured using the Meilun Cell Counting Kit-8 kit from Dalian Meilun Biotech Co., Ltd. Assay details are as follows: tumor cells were seeded in a 96-well plate at a density listed in Table A2. After 24h, 100 µL of the inoculated cells were treated with 0.5µL of the compounds of the present disclosure (including the compounds in Tables 1 and 2, and compounds of examples) at 10 different successively decreasing concentrations (starting at the highest concentration of 10µM; 5-fold serial dilutions). After the cells were treated with the compounds of the present disclosure for a period of time, the cell viability detection reagent was added to the culture medium for cell viability assessment according to the instructions provided with the CCK-8 kit. […] The growth inhibition of the compounds of the present disclosure on cells was plotted by Prism Graphpad software, and the IC50 values of the compounds of the present disclosure were calculated therefrom. […] Seeding protocol and treatment time for tumor cells

[6] = tested on: PC-9; assay: CCK-8 proliferation, PC-9; format: cell-based, Human; conditions: Homo sapiens, PC-9; CCK-8; 96 hours; read-out: Inhibitory activity (IC50) on tumor cell proliferation, PC-9
Method: as §2, §3

[7] = tested on: SR; assay: CCK-8 proliferation, SR; format: cell-based, Human; conditions: Homo sapiens, SR; CCK-8; 72 hours; read-out: Inhibitory activity (IC50) on tumor cell proliferation, SR
Outline: as §1

[8] = tested on: MV-4-11; assay: CCK-8 proliferation, MV-4-11; format: cell-based, Human; conditions: Homo sapiens, MV4-11; CCK-8; 72 or 96 hours; read-out: Inhibitory activity (IC50) on tumor cell proliferation, MV-4-11
Method: as §2, §3

[9] = tested on: CCRF-CEM; assay: CCK-8 proliferation, CCRF-CEM; format: cell-based, Human; conditions: Homo sapiens, CCRF-CEM; CCK-8; 96 hours; read-out: Inhibitory activity (IC50) on tumor cell proliferation, CCRF-CEM
Outline: as §1

[10] = tested on: Jurkat; assay: CCK-8 proliferation, Jurkat; format: cell-based, Human; conditions: Homo sapiens, Jurkat; CCK-8; 96 hours; read-out: Inhibitory activity (IC50) on tumor cell proliferation, Jurkat
Method: as §2, §3

Row | Structure (SMILES) | inhibition at 0.5 µM [1] [%] | inhibition at 2 µM [1] [%] | IC50 [5] [nM] | Degradation of substrate protein FAK (substrate protein remaining %) [2] | other results
1 | NC(=O)c1ncc(N2CCCCC2)nc1Nc1ccc(C2CCN(Cc3ccc(N4CCC(=O)NC4=O)cc3F)CC2)cc1 [GT-04790, 3-((4-(1-(4-(2,4-dioxotetrahydropyrimidin-1(2H)-yl)-2-fluorobenzyl)piperidin-4-yl)phenyl)amino)-5-(piperidin-1-yl)pyrazine-2-carboxamide] |  |  | 500 to 1000 |  | IC50 [3]: 500 to 1000 nM; IC50 [4]: 100 to 500 nM; IC50 [6]: 100 to 500 nM
2 | CNC(=O)c1ccccc1Nc1cc(Nc2cc(C)c(N3CCC(N(C)Cc4ccc(C5CCC(=O)NC5=O)c(F)c4)CC3)cc2OC(C)C)ncc1C(F)(F)F (centres unmarked) [GT-04095, 2-((2-((4-(4-((4-(2,6-dioxopiperidin-3-yl)-3-fluorobenzyl)(methyl)amino)piperidin-1-yl)-2-isopropoxy-5-methylphenyl)amino)-5-(trifluoromethyl)pyridin-4-yl)amino)-N-methylbenzamide] | 20 to 30 | 60 to 80 |  | A (A is defined as 0% ≤ substrate protein remaining % ≤ 80%) | 
3 | CNC(=O)c1ccccc1Nc1cc(Nc2ccc(N3CCC(N4CCN(Cc5ccc(C6CCC(=O)NC6=O)cc5)CC4)CC3)cc2OC)ncc1C(F)(F)F (centres unmarked) [GT-03599, 2-((2-((4-(4-(4-(4-(2,6-dioxopiperidin-3-yl)benzyl)piperazin-1-yl)piperidin-1-yl)-2-methoxyphenyl)amino)-5-(trifluoromethyl)pyridin-4-yl)amino)-N-methylbenzamide] |  |  |  | A (A is defined as 0% ≤ substrate protein remaining % ≤ 80%) | IC50 [9]: 100 to 500 nM
4 | CN(c1nccnc1CNc1nc(Nc2ccc(N3CCN(Cc4cccc(N5CCC(=O)NC5=O)c4)CC3)cc2)ncc1C(F)(F)F)S(C)(=O)=O [GT-07401, N-(3-(((2-((4-(4-(3-(2,4-dioxotetrahydropyrimidin-1(2H)-yl)benzyl)piperazin-1-yl)phenyl)amino)-5-(trifluoromethyl)pyrimidin-4-yl)amino)methyl)pyrazin-2-yl)-N-methylmethanesulfonamide] |  |  |  | A (A is defined as 0% ≤ substrate protein remaining % ≤ 80%) | 
5 | CNC(=O)c1ccccc1Nc1cc(Nc2ccc(N3CCC(N(C)Cc4ccnc(N5CCC(=O)NC5=O)c4)CC3)cc2OC)ncc1C(F)(F)F [GT-07654, 2-((2-((4-(4-(((2-(2,4-dioxotetrahydropyrimidin-1(2H)-yl)pyridin-4-yl)methyl)(methyl)amino)piperidin-1-yl)-2-methoxyphenyl)amino)-5-(trifluoromethyl)pyridin-4-yl)amino)-N-methylbenzamide] |  |  |  | A (A is defined as 0% ≤ substrate protein remaining % ≤ 80%) | 

More lines, main results first:

Row | inhibition at 0.5 µM [1] [%] | inhibition at 2 µM [1] [%] | IC50 [5] [nM] | Structure (SMILES) | Degradation of substrate protein FAK (substrate protein remaining %) [2] | other results
6 | 53 to 60 | 80 to 100 |  | COc1cc(C(=O)NC2CCN(Cc3ccc(C4CCC(=O)NC4=O)cc3)CC2)c(F)cc1Nc1ncc(C(F)(F)F)c(Oc2cccc3c2C(=O)N(C)C3)n1 (centres unmarked) [GT-04034, N-(1-(4-(2,6-dioxopiperidin-3-yl)benzyl)piperidin-4-yl)-2-fluoro-5-methoxy-4-((4-((2-methyl-3-oxoisoindolin-4-yl)oxy)-5-(trifluoromethyl)pyrimidin-2-yl)amino)benzamide] | A (A is defined as 0% ≤ substrate protein remaining % ≤ 80%) | 
7 | 30 to 40 | 40 to 53 | 500 to 1000 | CNC(=O)c1ccccc1Nc1cc(Nc2ccc(N3CCN(Cc4ccc(C5CCC(=O)NC5=O)c(F)c4)CC3)cc2OC)ncc1C(F)(F)F (centres unmarked) [GT-03717, 2-((2-((4-(4-(4-(2,6-dioxopiperidin-3-yl)-3-fluorobenzyl)piperazin-1-yl)-2-methoxyphenyl)amino)-5-(trifluoromethyl)pyridin-4-yl)amino)-N-methylbenzamide] | A (A is defined as 0% ≤ substrate protein remaining % ≤ 80%) | IC50 [3]: 500 to 1000 nM; IC50 [7]: 100 to 500 nM; IC50 [8]: 100 to 500 nM
8 | 30 to 40 | 53 to 60 |  | CNC(=O)c1ccccc1Nc1cc(Nc2cc(C)c(N3CCN(Cc4ccc(C5CCC(=O)NC5=O)cc4)CC3)cc2OC(C)C)ncc1C(F)(F)F (centres unmarked) [GT-03946, 2-((2-((4-(4-(4-(2,6-dioxopiperidin-3-yl)benzyl)piperazin-1-yl)-2-isopropoxy-5-methylphenyl)amino)-5-(trifluoromethyl)pyridin-4-yl)amino)-N-methylbenzamide] | A (A is defined as 0% ≤ substrate protein remaining % ≤ 80%) | 
9 | 40 to 53 | 80 to 100 |  | COc1cc(C(=O)NC2CCN(Cc3ccc(C4CCC(=O)NC4=O)c(F)c3)CC2)c(F)cc1Nc1ncc(C(F)(F)F)c(Oc2cccc3c2C(=O)N(C)C3)n1 (centres unmarked) [GT-04035, N-(1-(4-(2,6-dioxopiperidin-3-yl)-3-fluorobenzyl)piperidin-4-yl)-2-fluoro-5-methoxy-4-((4-((2-methyl-3-oxoisoindolin-4-yl)oxy)-5-(trifluoromethyl)pyrimidin-2-yl)amino)benzamide] | A (A is defined as 0% ≤ substrate protein remaining % ≤ 80%) | IC50 [10]: 50 to 100 nM
10 | 10 to 20 | 60 to 80 | 500 to 1000 | CNC(=O)c1ccccc1Nc1cc(Nc2ccc(N3CCN(Cc4ccc(C5CCC(=O)NC5=O)cc4)CC3)cc2OC)ncc1C(F)(F)F (centres unmarked) [GT-03715, 2-((2-((4-(4-(4-(2,6-dioxopiperidin-3-yl)benzyl)piperazin-1-yl)-2-methoxyphenyl)amino)-5-(trifluoromethyl)pyridin-4-yl)amino)-N-methylbenzamide] | A (A is defined as 0% ≤ substrate protein remaining % ≤ 80%) | IC50 [7]: 100 to 500 nM; IC50 [8]: 100 to 500 nM; IC50 [9]: 500 to 1000 nM
